{"source": "patent US20250213503A1", "about": "“TREATMENT OF CANCER WITH S1P RECEPTOR AGONISTS” (PRIOTHERA SAS, priority 2022, published 2025)", "origin": "cited, not measured here", "target": "S1PR1 (Homo sapiens, UniProt P21453)", "sequence (P21453 whole entry, species assumed)": "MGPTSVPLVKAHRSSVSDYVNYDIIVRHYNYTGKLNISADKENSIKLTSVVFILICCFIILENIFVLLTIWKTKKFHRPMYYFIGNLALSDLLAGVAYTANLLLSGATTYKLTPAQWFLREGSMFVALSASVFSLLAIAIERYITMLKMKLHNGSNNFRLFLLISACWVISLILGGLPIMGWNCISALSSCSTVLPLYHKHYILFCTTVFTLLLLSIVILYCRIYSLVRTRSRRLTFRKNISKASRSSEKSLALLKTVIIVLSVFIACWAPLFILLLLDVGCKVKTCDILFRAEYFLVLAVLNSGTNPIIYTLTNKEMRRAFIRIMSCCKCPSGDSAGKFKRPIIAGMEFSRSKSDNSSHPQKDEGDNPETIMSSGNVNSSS"}
{"smiles": "CCCCCCCCc1ccc(CCC(N)(CO)CO)cc1", "note": "[FTY720]", "values": [{"measurement": "selectivity for S1PR1 versus S1PR3-5", "value": "poor selectivity for S1PR1 versus S1PR3-5"}]}
